In the supplement of paper PMC11061612:

Tests used:
[1] = system: NCI-H1694 (Small Cell Lung Carcinoma); assay: Bliss excess, mean over the matrix (fraction); higher = more synergy
Method in brief: (§1)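 After 24 hours at 37°C and 5% CO2 in 1536-well plates, cells in DMEM/F12 or RPMI plus 10% FBS received two-drug dose matrices for 72 hours. Viability came from CellTiter-Glo 2.0 luminescence and was scaled as inhibition, anchored at 0 by vehicle wells and at 1 by blank wells. Combination Emax is taken as the second-highest inhibition in the matrix, and Bliss excess as the observed combination effect less EA + EB − EA·EB, with EA and EB the single-agent effects.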

[2] = system: LS-513 (Colorectal Carcinoma); assay: as above
Method in brief: as §1

NCI-H2369 (Mesothelioma) [3] = assay: as above
Method in brief: as §1

[4] = system: IHH-4 (Thyroid Gland Carcinoma); assay: as above
Method in brief: as §1

[5] = system: DMS-273 (Small Cell Lung Carcinoma); assay: as above
Method in brief: as §1

[6] = system: MDA-MB-157 (Breast Carcinoma); assay: as above
Method in brief: as §1

[7] = system: NALM-6 (B-Lymphoblastic Leukemia); assay: as above
Method in brief: as §1

[8] = system: SW1783 (Low Grade Glioma); assay: as above
Method in brief: as §1

[9] = system: TE-5 (Esophageal Squamous Cell Carcinoma); assay: as above
Method in brief: as §1

[10] = system: JiyoyeP-2003 (Burkitt's Lymphoma); assay: as above
Method in brief: as §1

[11] = system: SUIT-2 (Pancreatic Carcinoma); assay: as above
Method in brief: as §1

[12] = system: U-266 (Plasma Cell Myeloma); assay: combination Emax (second highest fraction inhibited in the dose matrix, 72 h); higher = more inhibition; extreme values may be limits of the assay
Method in brief: as §1

[13] = system: LS-513 (Colorectal Carcinoma); assay: as above
Method in brief: as §1

NCI-H2369 (Mesothelioma) [14] = assay: as above
Method in brief: as §1

[15] = system: SW1088 (Low Grade Glioma); assay: as above
Method in brief: as §1

[16] = system: NALM-6 (B-Lymphoblastic Leukemia); assay: as above
Method in brief: as §1

NCI-H2595 (Mesothelioma) = assay: as above
Method in brief: as §1

[17] = system: OCI-AML2 (Acute Myeloid Leukemia); assay: as above
Method in brief: as §1

[18] = system: MFH-ino (Other Solid Carcinomas); assay: as above
Method in brief: as §1

[19] = system: SUIT-2 (Pancreatic Carcinoma); assay: as above
Method in brief: as §1
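Throughout, for Bliss excess, mean over the matrix: after 72 h of two-drug dosing.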

## Cn1cnc2c(F)c(Nc3ccc(Br)cc3Cl)c(C(=O)NOCCO)cc21 [Selumetinib] + C=CCn1c(=O)c2cnc(Nc3ccc(N4CCN(C)CC4)cc3)nc2n1-c1cccc(C(C)(C)O)n1 [AZD1775] (first compound max 10 µM, partner max 1 µM)
[1]
  Bliss excess: -0.067
[2]
  Bliss excess: -0.0339
NCI-H2369 (Mesothelioma) [3]
  Bliss excess: -0.0624
[4]
  Bliss excess: -0.0083
[5]
  Bliss excess: 0.0035
[6]
  Bliss excess: 0.0096
[7]
  Bliss excess: 0.0755
[8]
  Bliss excess: -0.0939
[9]
  Bliss excess: -0.0514
[10]
  Bliss excess: -0.0563
[11]
  Bliss excess: -0.0417
[12]
  combination Emax: 0.847
[13]
  combination Emax: 0.904
NCI-H2369 (Mesothelioma) [14]
  combination Emax: 0.276
[15]
  combination Emax: 0.55
[16]
  combination Emax: 0.98
NCI-H2595 (Mesothelioma)
  combination Emax: 0.18
[17]
  combination Emax: 1
[18]
  combination Emax: 0.345
[19]
  combination Emax: 0.588

## Cn1cnc2c(F)c(Nc3ccc(Br)cc3Cl)c(C(=O)NOCCO)cc21 [Selumetinib] + CC(C)n1c(=O)n(C)c2cnc3cc(F)c(-c4ccc(OCCCN5CCCCC5)nc4)cc3c21 [AZD1390] (first compound max 10 µM, 7x7, partner max 0.3 µM)
[1]
  Bliss excess: -0.0085
[2]
  Bliss excess: -0.0395
NCI-H2369 (Mesothelioma) [3]
  Bliss excess: -0.0442
[4]
  Bliss excess: -0.0326
[5]
  Bliss excess: -0.0103
[6]
  Bliss excess: -0.032
[7]
  Bliss excess: -0.0248
[8]
  Bliss excess: -0.048
[9]
  Bliss excess: -0.0317
[10]
  Bliss excess: -0.0153
[11]
  Bliss excess: -0.0294
[12]
  combination Emax: 0.532
[13]
  combination Emax: 0.858
NCI-H2369 (Mesothelioma) [14]
  combination Emax: 0.129
[15]
  combination Emax: 0.14
[16]
  combination Emax: 0.205
NCI-H2595 (Mesothelioma)
  combination Emax: 0.191
[17]
  combination Emax: 0.993
[18]
  combination Emax: 0.281
[19]
  combination Emax: 0.284

## Cn1cnc2c(F)c(Nc3ccc(Br)cc3Cl)c(C(=O)NOCCO)cc21 [Selumetinib] + CCN(CCO)CCCOc1ccc2c(Nc3cc(CC(=O)Nc4cccc(F)c4)[nH]n3)ncnc2c1 [AZD2811] (first compound max 10 µM, 7x7, partner max 1 µM)
[1]
  Bliss excess: 0.0136
[2]
  Bliss excess: -0.0184
NCI-H2369 (Mesothelioma) [3]
  Bliss excess: -0.0517
[4]
  Bliss excess: -0.0209
[5]
  Bliss excess: -0.0144
[6]
  Bliss excess: -0.0064
[7]
  Bliss excess: 0.0318
[8]
  Bliss excess: -0.0559
[9]
  Bliss excess: -0.0191
[10]
  Bliss excess: -0.0053
[11]
  Bliss excess: -0.0526
[12]
  combination Emax: 0.594
[13]
  combination Emax: 0.85
NCI-H2369 (Mesothelioma) [14]
  combination Emax: 0.203
[15]
  combination Emax: 0.424
[16]
  combination Emax: 0.836
NCI-H2595 (Mesothelioma)
  combination Emax: 0.169
[17]
  combination Emax: 1
[18]
  combination Emax: 0.273
[19]
  combination Emax: 0.349

## Cn1cnc2c(F)c(Nc3ccc(Br)cc3Cl)c(C(=O)NOCCO)cc21 [Selumetinib] + C[C@@H]1COCCN1C2=NC(=NC(=C2)C3(CC3)[S@](=N)(=O)C)C4=C5C=CNC5=NC=C4 [AZD6738] (first compound max 10 µM, 7x7, partner max 10 µM)
[1]
  Bliss excess: -0.0037
[2]
  Bliss excess: 0.0046
NCI-H2369 (Mesothelioma) [3]
  Bliss excess: -0.0338
[4]
  Bliss excess: 0.0224
[5]
  Bliss excess: -0.0676
[6]
  Bliss excess: -0.0203
[7]
  Bliss excess: -0.0063
[8]
  Bliss excess: -0.103
[9]
  Bliss excess: -0.0388
[10]
  Bliss excess: -0.0145
[11]
  Bliss excess: 0.0298
[12]
  combination Emax: 0.717
[13]
  combination Emax: 0.897
NCI-H2369 (Mesothelioma) [14]
  combination Emax: 0.187
[15]
  combination Emax: 0.65
[16]
  combination Emax: 0.972
NCI-H2595 (Mesothelioma)
  combination Emax: 0.165
[17]
  combination Emax: 1
[18]
  combination Emax: 0.421
[19]
  combination Emax: 0.386

## CC(=O)Nc1cccc(-n2c(=O)n(C3CC3)c(=O)c3c(Nc4ccc(I)cc4F)n(C)c(=O)c(C)c32)c1 [Trametinib] + Cc1nc(-c2cn3c(n2)-c2ccc(-c4cnn(C(C)(C)C(N)=O)c4)cc2OCC3)n(C(C)C)n1 [Taselisib] (first compound max 1 µM, 7x7, partner max 10 µM)
[1]
  Bliss excess: 0.0583
[2]
  Bliss excess: 0.0113
NCI-H2369 (Mesothelioma) [3]
  Bliss excess: 0.046
[4]
  Bliss excess: -0.0242
[5]
  Bliss excess: 0.0427
[6]
  Bliss excess: 0.0963
[7]
  Bliss excess: -0.0228
[8]
  Bliss excess: -0.027
[9]
  Bliss excess: 0.101
[10]
  Bliss excess: 0.108
[11]
  Bliss excess: 0.0928
[12]
  combination Emax: 0.796
[13]
  combination Emax: 1
NCI-H2369 (Mesothelioma) [14]
  combination Emax: 0.294
[15]
  combination Emax: 0.696
[16]
  combination Emax: 0.689
NCI-H2595 (Mesothelioma)
  combination Emax: 0.404
[17]
  combination Emax: 1
[18]
  combination Emax: 0.583
[19]
  combination Emax: 0.702

## CC1(C)CCC(CN2CCN(c3ccc(C(=O)NS(=O)(=O)c4ccc(NCC5CCOCC5)c([N+](=O)[O-])c4)c(Oc4cnc5[nH]ccc5c4)c3)CC2)=C(c2ccc(Cl)cc2)C1 [Venetoclax] + C1CN(CCC1(C(=O)N[C@@H](CCO)C2=CC=C(C=C2)Cl)N)C3=NC=NC4=C3C=CN4 [Capivasertib] (first compound max 1 µM, 7x7, partner max 3 µM)
[1]
  Bliss excess: -0.0418
[2]
  Bliss excess: -0.0649
NCI-H2369 (Mesothelioma) [3]
  Bliss excess: -0.0422
[4]
  Bliss excess: -0.0187
[5]
  Bliss excess: 0.0443
[6]
  Bliss excess: -0.0187
[7]
  Bliss excess: 0.0346
[8]
  Bliss excess: -0.0494
[9]
  Bliss excess: -0.0197
[10]
  Bliss excess: -0.0144
[11]
  Bliss excess: -0.0663
[12]
  combination Emax: 0.555
[13]
  combination Emax: 0.335
NCI-H2369 (Mesothelioma) [14]
  combination Emax: 0.134
[15]
  combination Emax: 0.494
[16]
  combination Emax: 0.848
NCI-H2595 (Mesothelioma)
  combination Emax: 0.235
[17]
  combination Emax: 1
[18]
  combination Emax: 0.258
[19]
  combination Emax: 0.129
